Assay results: paper PMC12508063, “Chloroindazole based estrogen receptor β ligands with favorable pharmacokinetics promote functional remyelination and visual recovery” (Scientific Reports, 2025)
Values joined by “and” are separate entries in the source; they are usually repeats but may differ in a detail not shown here. Equal values may be shown once.

What was measured:
ERβ = target: T1, ERβ (Homo sapiens, UniProt Q92731); experiment: ER reporter gene assay in HEK 293 T cells (ER-luciferase reporter); assay type: cell-based; settings: for Reporter gene assay raw data, ERb: ERb data block (head r19), 4 replicate columns; for ERb reporter gene assay raw data (response): four replicate columns per compound
T1 construct: expressed in transfected cells; host or cells: HEK 293 T cells

ERα = target: T2, ERα (Homo sapiens, UniProt P03372); experiment: as above; assay type: cell-based; settings: for Reporter gene assay raw data, ERa: 4 replicate columns
T2 construct: expressed in transfected cells; host or cells: HEK 293 T cells
T2 sequence (P03372 1-595): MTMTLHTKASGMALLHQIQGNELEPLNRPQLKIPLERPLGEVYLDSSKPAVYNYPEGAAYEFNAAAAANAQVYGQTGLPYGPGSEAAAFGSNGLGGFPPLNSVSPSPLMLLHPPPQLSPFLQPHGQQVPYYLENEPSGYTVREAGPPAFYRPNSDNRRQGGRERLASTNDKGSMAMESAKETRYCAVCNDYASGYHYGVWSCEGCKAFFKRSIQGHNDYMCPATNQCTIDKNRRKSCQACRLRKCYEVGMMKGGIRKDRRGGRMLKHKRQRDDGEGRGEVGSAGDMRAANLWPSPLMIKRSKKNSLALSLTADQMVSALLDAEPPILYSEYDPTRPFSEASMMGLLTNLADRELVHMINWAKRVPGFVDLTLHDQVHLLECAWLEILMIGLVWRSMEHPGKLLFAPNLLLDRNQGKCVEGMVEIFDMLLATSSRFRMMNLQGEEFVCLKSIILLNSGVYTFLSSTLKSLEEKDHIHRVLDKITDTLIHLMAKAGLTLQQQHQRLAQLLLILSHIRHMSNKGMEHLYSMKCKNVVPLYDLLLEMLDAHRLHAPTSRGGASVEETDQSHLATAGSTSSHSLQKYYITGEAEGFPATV

T1 sequence (Q92731 whole entry, species assumed): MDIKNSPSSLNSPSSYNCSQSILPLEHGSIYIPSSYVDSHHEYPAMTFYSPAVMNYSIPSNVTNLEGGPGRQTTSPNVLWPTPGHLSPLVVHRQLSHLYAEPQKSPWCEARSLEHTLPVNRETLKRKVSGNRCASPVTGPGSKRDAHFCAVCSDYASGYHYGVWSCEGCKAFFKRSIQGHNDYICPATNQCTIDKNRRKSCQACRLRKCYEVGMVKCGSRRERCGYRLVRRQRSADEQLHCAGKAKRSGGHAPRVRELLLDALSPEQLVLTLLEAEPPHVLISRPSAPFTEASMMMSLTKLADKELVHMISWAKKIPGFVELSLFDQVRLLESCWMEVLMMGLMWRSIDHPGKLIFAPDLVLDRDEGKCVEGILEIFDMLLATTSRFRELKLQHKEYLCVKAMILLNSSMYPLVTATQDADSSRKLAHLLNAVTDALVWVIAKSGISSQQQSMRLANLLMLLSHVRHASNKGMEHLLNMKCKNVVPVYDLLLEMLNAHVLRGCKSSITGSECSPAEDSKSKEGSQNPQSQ

In the case of C[C@]12CC[C@@H]3c4ccc(O)cc4CC[C@H]3[C@@H]1CC[C@@H]2O [Compound E2, estradiol], the “Reporter gene assay raw data, ERb” value (ERβ; Log M -6) is reported as 88.8232 and 101.64 and 110.514 and 90.7218, the “ERb reporter gene assay raw data (response)” value (ERβ; Log M -6) is reported as 84.0609 and 88.7479 and 111.697 and 94.4619 and the “Reporter gene assay raw data, ERb” value (ERβ; Log M -6.47756) is reported as 97.0869 and 99.8524 and 105.457 and 96.3817. For the same compound, the “ERb reporter gene assay raw data (response)” value (ERβ; Log M -6.47756) was 91.3063 and 103.043 and 96.9565 and 108.694, the “Reporter gene assay raw data, ERb” value (ERβ; Log M -6.95468) was 101.657 and 108.929 and 91.071 and 98.3432 and the “ERb reporter gene assay raw data (response)” value (ERβ; Log M -6.95468) was 85.5094 and 93.8773 and 82.9145 and 86.4119. The “Reporter gene assay raw data, ERb” value (ERβ; Log M -7.4318) was 88.9611 and 107.81 and 89.4793, the “ERb reporter gene assay raw data (response)” value (ERβ; Log M -7.4318) was 92.1619 and 99.8727 and 93.6976 and 98.6683 and the “Reporter gene assay raw data, ERb” value (ERβ; Log M -7.91009) was 87.7241 and 103.45 and 96.1824 and 92.6694. The “ERb reporter gene assay raw data (response)” value (ERβ; Log M -7.91009) was 89.9017 and 89.3359 and 90.9076 and 106.617, the “Reporter gene assay raw data, ERb” value (ERβ; Log M -8.3851) was 90.4631 and 100.397 and 90.4263 and 91.0339 and the “ERb reporter gene assay raw data (response)” value (ERβ; Log M -8.3851) was 91.9536 and 86.2134 and 78.7089 and 97.5579. The “Reporter gene assay raw data, ERb” value (ERβ; Log M -8.86328) was 79.9036 and 104.483 and 99.1546 and 93.2724, the “ERb reporter gene assay raw data (response)” value (ERβ; Log M -8.86328) was 95.1963 and 89.1365 and 87.1229 and 89.1607 and the “Reporter gene assay raw data, ERb” value (ERβ; Log M -9.34008) was 95.3149 and 101.905 and 91.5426 and 83.1517. For the same compound, the “ERb reporter gene assay raw data (response)” value (ERβ; Log M -9.34008) was 83.69 and 95.3591 and 88.894 and 92.378, the “Reporter gene assay raw data, ERb” value (ERβ; Log M -9.81816) was 104.147 and 95.8332 and 93.5201 and 92.5995 and the “ERb reporter gene assay raw data (response)” value (ERβ; Log M -9.81816) was 83.8842 and 77.8861 and 83.3564 and 89.1956. For the same compound, the “Reporter gene assay raw data, ERb” value (ERβ; Log M -10.2941) was 77.6845 and 76.952 and 81.0679 and 77.2912, the “ERb reporter gene assay raw data (response)” value (ERβ; Log M -10.2941) was 80.3017 and 74.375 and 74.4575 and 76.8278 and the “Reporter gene assay raw data, ERb” value (ERβ; Log M -10.7721) was 31.1486 and 35.6178 and 35.7979 and 36.2215. For the same compound, the “ERb reporter gene assay raw data (response)” value (ERβ; Log M -10.7721) was 27.7709 and 32.5606 and 30.8658, the “Reporter gene assay raw data, ERb” value (ERβ; Log M -11.248) was 7.1742 and 11.1236 and 8.004 and 9.347 and the “ERb reporter gene assay raw data (response)” value (ERβ; Log M -11.248) was 5.759 and 5.232 and 4.796 and 6.634. The “ERb reporter gene assay raw data (response)” value (ERβ; Log M -13) was -0.5566 and 0.8119 and -0.8119 and 0.5566.

For Oc1ccc([C@@H]2Oc3ccc(O)cc3[C@@H]3CCC[C@@H]32)cc1 [LY500307], the “Reporter gene assay raw data, ERa” value (ERα; Log M -6, first ERa data block (head r2)) was 95.3498 and 76.8258 and 78.8468 and 79.4968, the “Reporter gene assay raw data, ERa” value (ERα; Log M -6, second ERa data block (head r34)) was 84.2897 and 88.4184 and 89.8518 and 82.7548 and the “Reporter gene assay raw data, ERa” value (ERα; Log M -6.47756, first ERa data block (head r2)) was 81.0788 and 76.9627 and 81.3158 and 77.2241. The “Reporter gene assay raw data, ERa” value (ERα; Log M -6.47756, second ERa data block (head r34)) was 83.7373 and 79.8906 and 79.6354 and 82.4556, the “Reporter gene assay raw data, ERa” value (ERα; Log M -6.95468, first ERa data block (head r2)) was 64.5612 and 69.8569 and 66.3267 and 71.602 and the “Reporter gene assay raw data, ERa” value (ERα; Log M -6.95468, second ERa data block (head r34)) was 71.7534 and 71.241 and 72.7885 and 70.2307. The “Reporter gene assay raw data, ERa” value (ERα; Log M -7.4318, first ERa data block (head r2)) was 51.8548 and 63.5801 and 59.7283 and 55.8203, the “Reporter gene assay raw data, ERa” value (ERα; Log M -7.4318, second ERa data block (head r34)) was 63.921 and 68.3671 and 59.0742 and 56.656 and the “Reporter gene assay raw data, ERa” value (ERα; Log M -7.91009, first ERa data block (head r2)) was 45.1889 and 57.478 and 50.9227 and 51.1094. The “Reporter gene assay raw data, ERa” value (ERα; Log M -7.91009, second ERa data block (head r34)) was 50.9317 and 49.5895 and 46.336 and 52.0394, the “Reporter gene assay raw data, ERa” value (ERα; Log M -8.3851, first ERa data block (head r2)) was 49.7552 and 47.0158 and 40.3598 and 42.6852 and the “Reporter gene assay raw data, ERa” value (ERα; Log M -8.3851, second ERa data block (head r34)) was 51.0127 and 45.6306 and 44.3415 and 46.4772. The “Reporter gene assay raw data, ERa” value (ERα; Log M -8.86328, first ERa data block (head r2)) was 31.993 and 35.5083 and 37.6374 and 35.7027, the “Reporter gene assay raw data, ERa” value (ERα; Log M -8.86328, second ERa data block (head r34)) was 42.4323 and 38.564 and 35.9099 and 35.545 and the “Reporter gene assay raw data, ERa” value (ERα; Log M -9.34008, first ERa data block (head r2)) was 17.3101 and 15.2621 and 18.8474 and 18.6811. For the same compound, the “Reporter gene assay raw data, ERa” value (ERα; Log M -9.34008, second ERa data block (head r34)) was 21.5928 and 20.6886 and 16.8312 and 20.0407, the “Reporter gene assay raw data, ERa” value (ERα; Log M -9.81816, first ERa data block (head r2)) was 8.154 and 4.486 and 4.8306 and 4.983 and the “Reporter gene assay raw data, ERa” value (ERα; Log M -9.81816, second ERa data block (head r34)) was 6.6406 and 6.967 and 4.962 and 7.591. For the same compound, the “Reporter gene assay raw data, ERa” value (ERα; Log M -10.2941, first ERa data block (head r2)) was 3.132 and 9.724 and 4.561 and 11.8118, the “Reporter gene assay raw data, ERa” value (ERα; Log M -10.2941, second ERa data block (head r34)) was 3.775 and 13.8366 and 4.292 and 12.8533 and the “Reporter gene assay raw data, ERa” value (ERα; Log M -10.7721, first ERa data block (head r2)) was 1.451 and 1.5656 and -0.4526 and 1.85. For the same compound, the “Reporter gene assay raw data, ERa” value (ERα; Log M -10.7721, second ERa data block (head r34)) was -0.2019 and 1.235 and 0.142 and 1.333, the “Reporter gene assay raw data, ERa” value (ERα; Log M -11.248, first ERa data block (head r2)) was -0.6879 and -0.2253 and -0.584 and 0.4876 and the “Reporter gene assay raw data, ERa” value (ERα; Log M -11.248, second ERa data block (head r34)) was -0.9111 and -0.3248 and 1.487 and 1.068. The “ERa reporter gene assay raw data (response)” value (ERα; Log M -13, four replicate columns per compound) was 0.8253 and -0.8253 and 1.478 and -1.478.
